The values that follow come from patent US5324725A, “7-fused 2-(piperazinoalkyl) indole derivatives, intermediates and compositions thereof” (Kali-Chemie Pharma GmbH, priority 1991, dated 1994).

The subject of this assay is P.A.F.-induced aggregation of platelets from rabbit blood. In words: Anti-P.A.F. effect in vitro: inhibition of P.A.F.-induced platelet aggregation. It counts as cell-based, rabbit (New Zealand hybrids). The settings on record: Oryctolagus cuniculus, Platelet, test substance concentration 10^-5 mol/l. The gist of the method: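 Washed, aspirin-treated rabbit platelets (4×10^9/ml stock suspension) in modified Tyrode buffer, pH 7.4, preincubated 90 s with test compound at 10^-5 mol/l final, then challenged with P.A.F. Aggregation followed 4–5 min in an aggregometer. Inhibition expressed in % relative to P.A.F.-only (100%) and platelet-only (0%) controls.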

In the case of `CCCCC1CCc2cccc3c(CCN4CCN(c5cc(C)ccn5)CC4)c(C)n1c23` (stereo not drawn) [Example 73, 4-n-butyl-5,6-dihydro-2-methyl-1-{2-[4-(4-methylpyridin-2-yl)piperazin-1-yl]ethyl}-4H-pyrrolo[3,2,1-ij]quinoline], the inhibition at 10 µM is 99%. Next, `Cc1ccnc(N2CCN(CCc3c(C)n4c5c(cccc35)CCC4C3CCCCC3)CC2)c1` (stereo not drawn) [Example 87]: 100%. Then `COc1ccc(-c2c(CCN3CCN(c4cc(C)ccn4)CC3)c3cccc4c3n2CCC4)cc1` [Example 7, 2-(4-methoxy-phenyl)-1-{2-[4-(4-methylpyridin-2-yl)piperazin-1-yl]ethyl}-5,6-dihydro-4H-pyrrolo[3,2,1-ij]quinoline], with 100%.
